Activity calls are given as the source filed them. The rule behind the calls is not given here.
How the values were obtained:
[1] = tested on: MCF7; assay: Cell cycle arrest in human MCF7 cells as assessed as accumulation at S phase at 1 uM after 48 hrs by propidium iodide staining-based flow cytometric analysis relative to control; assay type: functional
[2] = tested on: SW-620; assay: Cell cycle arrest in human SW620 cells as assessed as accumulation at S phase at 0.1 uM after 24 hrs by propidium iodide staining-based flow cytometric analysis relative to control; assay type: functional
[3] = tested on: K562; assay: Cell cycle arrest in human K562 cells as assessed as accumulation at G2/M phase at 0.5 uM after 24 hrs by propidium iodide staining-based flow cytometric analysis relative to control; assay type: functional
[4] = tested on: K562; assay: Cell cycle arrest in human K562 cells as assessed as accumulation at G1 phase at 0.1 uM after 48 hrs by propidium iodide staining-based flow cytometric analysis relative to control; assay type: functional
[5] = tested on: MCF7; assay: Cell cycle arrest in human MCF7 cells as assessed as accumulation at sub-G1 phase at 0.1 uM after 48 hrs by propidium iodide staining-based flow cytometric analysis relative to control; assay type: functional
[6] = tested on: K562; assay: Cell cycle arrest in human K562 cells as assessed as accumulation at sub-G1 phase at 0.5 uM after 48 hrs by propidium iodide staining-based flow cytometric analysis relative to control; assay type: functional
[7] = tested on: SW-620; assay: Cell cycle arrest in human SW620 cells as assessed as accumulation at G1 phase at 1 uM after 48 hrs by propidium iodide staining-based flow cytometric analysis relative to control; assay type: functional
[8] = tested on: WI-38; assay: Cell cycle arrest in human WI38 cells as assessed as accumulation at sub-G1 phase at 0.1 uM after 48 hrs by propidium iodide staining-based flow cytometric analysis relative to control; details: wi-38, 48 h
[9] = tested on: BJ; assay: Antiproliferative activity against human BJ cells after 72 hrs by PrestoBlue colorimetric assay; assay type: cell-based
[10] = tested on: MCF7; assay: Cell cycle arrest in human MCF7 cells as assessed as accumulation at G1 phase at 0.1 uM after 48 hrs by propidium iodide staining-based flow cytometric analysis relative to control; assay type: functional
[11] = tested on: HeLa; assay: Antiadhesive activity against human HeLa cells at 5 uM after 2 to 24 hrs by crystal-violet staining-based microscopic analysis; assay type: functional, cell-based
[12] = tested on: K562; assay: Cell cycle arrest in human K562 cells as assessed as accumulation at S phase at 0.5 uM after 24 hrs by propidium iodide staining-based flow cytometric analysis relative to control; assay type: functional
[13] = tested on: BJ; assay: Antiadhesive activity against human BJ cells at 5 uM after 2 to 24 hrs by crystal-violet staining-based microscopic analysis; assay type: ADME, cell-based
[14] = tested on: MCF7; assay: Cell cycle arrest in human MCF7 cells as assessed as accumulation at S phase at 1 uM after 24 hrs by propidium iodide staining-based flow cytometric analysis relative to control; assay type: functional
[15] = tested on: SW-620; assay: Antiadhesive activity against human SW620 cells at 5 uM after 2 to 24 hrs by crystal-violet staining-based microscopic analysis; assay type: functional, cell-based
[16] = tested on: K562; assay: Cell cycle arrest in human K562 cells as assessed as accumulation at G2/M phase at 0.5 uM after 48 hrs by propidium iodide staining-based flow cytometric analysis relative to control; assay type: functional
[17] = tested on: MCF7; assay: Cell cycle arrest in human MCF7 cells as assessed as accumulation at S phase at 0.1 uM after 48 hrs by propidium iodide staining-based flow cytometric analysis relative to control; assay type: functional
[18] = (§1) Antiproliferative activity against human MIAPaCa2 cells after 72 hrs by MTT assay; assay type: functional, cell-based; details: MIA PaCa-2, 72 h
[19] = tested on: MIA PaCa-2; assay: as §1; assay type: functional, cell-based
[20] = tested on: K562; assay: Cell cycle arrest in human K562 cells as assessed as accumulation at G1 phase at 1 uM after 48 hrs by propidium iodide staining-based flow cytometric analysis relative to control; assay type: functional
[21] = tested on: SW-620; assay: Cell cycle arrest in human SW620 cells as assessed as accumulation at G2/M phase at 0.1 uM after 24 hrs by propidium iodide staining-based flow cytometric analysis relative to control; assay type: functional
[22] = tested on: SW-620; assay: Cell cycle arrest in human SW620 cells as assessed as accumulation at G1 phase at 0.1 uM after 24 hrs by propidium iodide staining-based flow cytometric analysis relative to control; assay type: functional
[23] = tested on: WI-38; assay: Cell cycle arrest in human WI38 cells as assessed as accumulation at sub-G1 phase at 0.1 uM after 24 hrs by propidium iodide staining-based flow cytometric analysis relative to control; details: wi-38, 24 h
[24] = tested on: MCF7; assay: Cell cycle arrest in human MCF7 cells as assessed as accumulation at G2/M phase at 1 uM after 24 hrs by propidium iodide staining-based flow cytometric analysis relative to control; assay type: functional
[25] = tested on: SW-620; assay: Cell cycle arrest in human SW620 cells as assessed as accumulation at sub-G1 phase at 0.1 uM after 24 hrs by propidium iodide staining-based flow cytometric analysis relative to control; assay type: functional
[26] = tested on: WI-38; assay: Cell cycle arrest in human WI38 cells as assessed as accumulation at G1 phase at 1 uM after 24 hrs by propidium iodide staining-based flow cytometric analysis relative to control; details: wi-38, 24 h
[27] = tested on: MCF7; assay: Cell cycle arrest in human MCF7 cells as assessed as accumulation at G2/M phase at 0.1 uM after 48 hrs by propidium iodide staining-based flow cytometric analysis relative to control; assay type: functional
[28] = tested on: K562; assay: Cell cycle arrest in human K562 cells as assessed as accumulation at G2/M phase at 0.1 uM after 24 hrs by propidium iodide staining-based flow cytometric analysis relative to control; assay type: functional
[29] = tested on: MCF7; assay: Antiproliferative activity against human MCF7 cells after 72 hrs by MTT assay; assay type: functional, cell-based
[30] = tested on: SW-620; assay: Cell cycle arrest in human SW620 cells as assessed as accumulation at S phase at 1 uM after 48 hrs by propidium iodide staining-based flow cytometric analysis relative to control; assay type: functional
[31] = tested on: K562; assay: Cell cycle arrest in human K562 cells as assessed as accumulation at S phase at 0.1 uM after 24 hrs by propidium iodide staining-based flow cytometric analysis relative to control; assay type: functional
[32] = tested on: K562; assay: Cell cycle arrest in human K562 cells as assessed as accumulation at G1 phase at 1 uM after 24 hrs by propidium iodide staining-based flow cytometric analysis relative to control; assay type: functional
[33] = tested on: WI-38; assay: Cell cycle arrest in human WI38 cells as assessed as accumulation at S phase at 1 uM after 24 hrs by propidium iodide staining-based flow cytometric analysis relative to control; details: wi-38, 24 h
[34] = tested on: WI-38; assay: Cell cycle arrest in human WI38 cells as assessed as accumulation at G1 phase at 0.1 uM after 24 hrs by propidium iodide staining-based flow cytometric analysis relative to control; details: wi-38, 24 h
[35] = tested on: SW-620; assay: Cell cycle arrest in human SW620 cells as assessed as accumulation at G2/M phase at 1 uM after 48 hrs by propidium iodide staining-based flow cytometric analysis relative to control; assay type: functional
[36] = tested on: K562; assay: Cell cycle arrest in human K562 cells as assessed as accumulation at sub-G1 phase at 0.1 uM after 24 hrs by propidium iodide staining-based flow cytometric analysis relative to control; assay type: functional
[37] = tested on: WI-38; assay: Cell cycle arrest in human WI38 cells as assessed as accumulation at sub-G1 phase at 1 uM after 24 hrs by propidium iodide staining-based flow cytometric analysis relative to control; details: wi-38, 24 h
[38] = tested on: MCF7; assay: Cell cycle arrest in human MCF7 cells as assessed as accumulation at G2/M phase at 0.1 uM after 24 hrs by propidium iodide staining-based flow cytometric analysis relative to control; assay type: functional

COCn1c(CC(COCc2ccccc2)COCc2ccccc2)c(C)c(=O)n(COC)c1=O
Activity [1]: 4.9%
Activity [2]: 19.6%
Activity [3]: 4.8%
Activity [4]: 49.8%
Activity [5]: 50.5%
Activity [6]: 15%
Activity [7]: 53.1%
Activity [8]: 38.5%
IC50 [9]: 5300 nM
Activity [10]: 23.8%
Activity [11]: Active
Activity [12]: 5.6%
Activity [13]: Toxic
Activity [14]: 8.1%
Activity [15]: Active
Activity [16]: 3.9%
Activity [17]: 11.9%
IC50 [18]: 500 nM
Activity [19]: Dose-dependent effect
Activity [20]: 51.8%
Activity [21]: 21.7%
Activity [22]: 51.5%
Activity [23]: 21.9%
Activity [24]: 8.7%
Activity [25]: 4.3%
Activity [26]: 70.1%
Activity [27]: 9.5%
Activity [28]: 22.2%
Activity [29]: Dose-dependent effect
IC50 ([29]; MCF7, 72 h): 400 nM
Activity [30]: 22%
Activity [31]: 28.6%
Activity [32]: 53%
Activity [33]: 2.4%
Activity [34]: 61.7%
Activity [35]: 15.8%
Activity [36]: 2.2%
Activity [37]: 21%
Activity [38]: 7.1%
